Counter-ions that a name gives are not always drawn.
Columns and labels:
[1] = target: T1, HiBit-BRG1 fusion protein (Homo sapiens, UniProt P51532); experiment: HiBiT-BRG1 cell-based degradation assay (Nano-Glo HiBiT Lytic Detection, 24 h); conditions: HeLa cell line expressing HiBit-BRG1 and LgBit; for Dmax: read-out: BRG1 HiBit Degradation Maximum (%); for DC50: read-out: BRMG1 HiBit Degradation IC50
T1 construct: expressed in transfected cells
Protocol: Procedure: A stable HeLa cell line expressing HiBiT-BRM was generated. On day 0, 5000 cells were seeded in 40 μL of media into each well of 384-well cell culture plates. […] Subsequently plates were incubated for 24 h in a standard tissue culture incubator and equilibrated at room temperature for 15 minutes. Nano-Glo HiBiT Lytic Detection System (Promega N3050) reagent was freshly prepared and 20 ul was added to each well. Upon addition of this LgBit-containing reagent, the HiBiT and LgBiT proteins associate to form the luminescent NanoBiT luciferase. The plates were shaken for 10 minutes at room temperature and the bioluminescence read using an EnVision plate reader (PerkinElmer).
For measurement of BRG1 degradation, a stable HeLa cell line expressing HiBit-BRG1 and LgBit was generated. The same protocol as above was then followed.
(§1) The degradation % was calculated using the following formula: % degradation=100%−100%×(LumSample−LumLC)/(LumHC−LumLC). DMSO treated cells are employed as High Control (HC) and 2 μM of a known BRM/BRG1 degrader standard treated cells are employed as Low Control (LC).

HiBit-BRM fusion protein = target: T2, HiBit-BRM fusion protein (Homo sapiens, UniProt P51531); experiment: HiBiT-BRM cell-based degradation assay (Nano-Glo HiBiT Lytic Detection, 24 h); conditions: HeLa cell line expressing HiBiT-BRM; for DC50: read-out: BRM HiBit Degradation IC50
T2 construct: expressed in transfected cells
Protocol: Procedure: A stable HeLa cell line expressing HiBiT-BRM was generated. On day 0, 5000 cells were seeded in 40 μL of media into each well of 384-well cell culture plates. On day 1, cells were treated with 120 nL DMSO or 120 nL of 3-fold serially DMSO-diluted compounds (10 points in duplicate with 30 μM as final top dose). Subsequently plates were incubated for 24 h in a standard tissue culture incubator and equilibrated at room temperature for 15 minutes. Nano-Glo HiBiT Lytic Detection System (Promega N3050) reagent was freshly prepared and 20 ul was added to each well. Upon addition of this LgBit-containing reagent, the HiBiT and LgBiT proteins associate to form the luminescent NanoBiT luciferase. The plates were shaken for 10 minutes at room temperature and the bioluminescence read using an EnVision plate reader (PerkinElmer).
as §1

T1 sequence (P51532 whole entry, the tested form may be a part): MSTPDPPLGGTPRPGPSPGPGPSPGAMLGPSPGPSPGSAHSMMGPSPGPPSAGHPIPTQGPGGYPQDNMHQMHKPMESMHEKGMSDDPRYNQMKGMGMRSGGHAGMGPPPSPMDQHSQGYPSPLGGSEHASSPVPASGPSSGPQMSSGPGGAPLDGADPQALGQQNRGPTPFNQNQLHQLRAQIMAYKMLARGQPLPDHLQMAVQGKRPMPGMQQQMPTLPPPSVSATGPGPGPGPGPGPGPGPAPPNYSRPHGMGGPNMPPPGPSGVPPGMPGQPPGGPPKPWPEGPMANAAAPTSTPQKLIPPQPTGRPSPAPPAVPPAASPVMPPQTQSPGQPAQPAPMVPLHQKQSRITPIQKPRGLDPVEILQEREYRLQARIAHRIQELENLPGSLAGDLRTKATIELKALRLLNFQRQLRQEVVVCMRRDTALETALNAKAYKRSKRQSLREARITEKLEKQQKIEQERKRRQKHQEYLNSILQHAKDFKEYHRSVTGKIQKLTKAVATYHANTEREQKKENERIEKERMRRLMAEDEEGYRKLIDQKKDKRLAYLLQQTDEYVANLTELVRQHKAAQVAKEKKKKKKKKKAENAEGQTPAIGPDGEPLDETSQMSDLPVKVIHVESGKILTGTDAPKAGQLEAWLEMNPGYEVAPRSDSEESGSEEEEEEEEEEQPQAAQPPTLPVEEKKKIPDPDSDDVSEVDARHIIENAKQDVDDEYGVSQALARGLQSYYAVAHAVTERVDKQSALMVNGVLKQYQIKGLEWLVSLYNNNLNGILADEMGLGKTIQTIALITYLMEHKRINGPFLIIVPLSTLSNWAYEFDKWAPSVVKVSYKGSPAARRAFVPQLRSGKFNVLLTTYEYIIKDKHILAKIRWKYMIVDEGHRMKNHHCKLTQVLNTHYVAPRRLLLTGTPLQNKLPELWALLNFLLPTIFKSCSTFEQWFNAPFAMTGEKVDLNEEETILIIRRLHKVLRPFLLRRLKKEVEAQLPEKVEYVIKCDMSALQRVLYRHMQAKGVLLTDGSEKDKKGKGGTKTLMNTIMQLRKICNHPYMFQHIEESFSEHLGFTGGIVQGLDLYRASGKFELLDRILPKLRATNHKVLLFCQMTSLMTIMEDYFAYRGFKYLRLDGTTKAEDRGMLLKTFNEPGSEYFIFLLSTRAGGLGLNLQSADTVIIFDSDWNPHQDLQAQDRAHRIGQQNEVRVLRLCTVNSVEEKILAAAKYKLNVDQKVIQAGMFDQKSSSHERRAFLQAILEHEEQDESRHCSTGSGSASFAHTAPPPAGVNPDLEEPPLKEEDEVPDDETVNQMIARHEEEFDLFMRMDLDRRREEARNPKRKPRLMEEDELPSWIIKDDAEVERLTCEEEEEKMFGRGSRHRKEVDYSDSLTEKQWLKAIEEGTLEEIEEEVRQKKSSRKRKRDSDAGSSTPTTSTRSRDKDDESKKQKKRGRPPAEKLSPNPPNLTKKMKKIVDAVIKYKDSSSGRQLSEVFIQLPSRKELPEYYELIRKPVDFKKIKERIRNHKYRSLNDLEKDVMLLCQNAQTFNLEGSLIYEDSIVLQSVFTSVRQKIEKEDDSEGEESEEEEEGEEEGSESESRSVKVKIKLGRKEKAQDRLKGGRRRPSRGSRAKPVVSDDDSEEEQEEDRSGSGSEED
T2 sequence (P51531 whole entry, the tested form may be a part): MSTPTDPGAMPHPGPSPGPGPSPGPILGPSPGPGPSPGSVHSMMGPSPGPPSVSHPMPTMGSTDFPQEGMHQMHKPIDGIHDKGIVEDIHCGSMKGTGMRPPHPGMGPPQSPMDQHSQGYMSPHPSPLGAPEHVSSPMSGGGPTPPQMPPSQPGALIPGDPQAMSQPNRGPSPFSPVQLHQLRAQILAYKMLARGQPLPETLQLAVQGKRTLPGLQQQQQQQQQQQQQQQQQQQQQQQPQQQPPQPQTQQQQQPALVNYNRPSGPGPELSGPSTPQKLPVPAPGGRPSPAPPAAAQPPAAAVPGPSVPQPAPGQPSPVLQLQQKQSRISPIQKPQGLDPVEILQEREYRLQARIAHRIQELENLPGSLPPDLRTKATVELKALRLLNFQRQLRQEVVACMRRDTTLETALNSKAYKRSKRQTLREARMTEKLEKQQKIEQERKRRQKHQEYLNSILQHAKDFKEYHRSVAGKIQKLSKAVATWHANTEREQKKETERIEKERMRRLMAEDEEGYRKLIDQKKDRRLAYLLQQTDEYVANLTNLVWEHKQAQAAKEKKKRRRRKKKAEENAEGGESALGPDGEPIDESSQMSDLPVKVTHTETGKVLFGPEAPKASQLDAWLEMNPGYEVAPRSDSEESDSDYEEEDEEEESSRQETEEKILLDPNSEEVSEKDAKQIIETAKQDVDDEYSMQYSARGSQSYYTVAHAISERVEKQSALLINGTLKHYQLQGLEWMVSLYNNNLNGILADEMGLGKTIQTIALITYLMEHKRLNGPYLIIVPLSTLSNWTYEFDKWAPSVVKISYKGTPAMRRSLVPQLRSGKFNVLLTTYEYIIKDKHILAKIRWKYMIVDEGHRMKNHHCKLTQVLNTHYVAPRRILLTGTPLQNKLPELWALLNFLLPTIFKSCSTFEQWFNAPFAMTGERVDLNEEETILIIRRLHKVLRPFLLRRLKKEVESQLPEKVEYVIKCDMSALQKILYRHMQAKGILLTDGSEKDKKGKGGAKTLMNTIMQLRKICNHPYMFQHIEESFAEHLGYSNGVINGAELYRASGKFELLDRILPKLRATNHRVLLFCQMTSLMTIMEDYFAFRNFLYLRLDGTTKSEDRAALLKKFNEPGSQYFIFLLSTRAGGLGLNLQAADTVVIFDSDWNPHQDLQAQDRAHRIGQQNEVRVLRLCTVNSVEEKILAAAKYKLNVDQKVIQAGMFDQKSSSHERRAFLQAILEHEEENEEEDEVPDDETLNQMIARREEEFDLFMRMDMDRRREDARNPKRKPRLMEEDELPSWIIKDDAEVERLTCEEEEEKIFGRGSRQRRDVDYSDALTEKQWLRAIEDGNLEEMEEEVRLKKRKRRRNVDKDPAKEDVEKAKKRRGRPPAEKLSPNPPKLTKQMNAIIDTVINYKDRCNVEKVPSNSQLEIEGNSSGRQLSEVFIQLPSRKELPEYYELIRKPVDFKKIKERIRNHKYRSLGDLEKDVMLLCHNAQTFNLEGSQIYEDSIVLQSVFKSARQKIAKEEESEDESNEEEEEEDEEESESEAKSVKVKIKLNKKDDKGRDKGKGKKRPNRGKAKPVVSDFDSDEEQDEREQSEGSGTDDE

Row | SMILES | Dmax [1] | BRM HiBit Degradation Maximum (%) (HiBit-BRM fusion protein) | DC50 (HiBit-BRM fusion protein) | DC50 [1]
1 | Cc1ncsc1-c1ccc([C@H](C)NC(=O)[C@@H]2C[C@@H](O)CN2C(=O)[C@@H](c2cc(OCCN3CCC(N4CC(c5cc6cc(-c7ccccc7O)nnc6[nH]5)C4)CC3)no2)C(C)C)cc1 (racemic) [Compound 48, (2S,4R)-4-hydroxy-1-((R)-2-(3-(2-(4-(3-(3-(2-hydroxyphenyl)-7H-pyrrolo[2,3-c]pyridazin-6-yl)azetidin-1-yl)piperidin-1-yl)ethoxy)isoxazol-5-yl)-3-methylbutanoyl)-N-((S)-1-(4-(4-methylthiazol-5-yl)phenyl)ethyl)pyrrolidine-2-carboxamide] | < 50% | A (“A” indicates maximum degradation ≥ 75%) | > 0.01 µM | 
2 | Cc1ncsc1-c1ccc([C@H](C)NC(=O)[C@@H]2C[C@@H](O)CN2C(=O)[C@@H](c2cc(OCCN3CCC(N4CC(c5cc6cc(-c7ccccc7O)nnc6[nH]5)C4)C3)no2)C(C)C)cc1 (mixture of isomers) [Compound 49, (2S,4R)-4-hydroxy-1-((2R)-2-(3-(2-(3-(3-(3-(2-hydroxyphenyl)-7H-pyrrolo[2,3-c]pyridazin-6-yl)azetidin-1-yl)pyrrolidin-1-yl)ethoxy)isoxazol-5-yl)-3-methylbutanoyl)-N-((S)-1-(4-(4-methylthiazol-5-yl)phenyl)ethyl)pyrrolidine-2-carboxamide] | > 50% | A (“A” indicates maximum degradation ≥ 75%) | > 0.01 µM | > 0.1 µM
3 | Cc1ncsc1-c1ccc(CNC(=O)[C@@H]2C[C@@H](O)CN2C(=O)[C@@H](NCCC(=O)N2CC(c3cc4cc(-c5ccccc5O)nnc4[nH]3)C2)C(C)(C)C)cc1 (racemic) [Compound 50, (2S,4R)-4-hydroxy-1-((S)-2-((3-(3-(3-(2-hydroxyphenyl)-7H-pyrrolo[2,3-c]pyridazin-6-yl)azetidin-1-yl)-3-oxopropyl)amino)-3,3-dimethylbutanoyl)-N-(4-(4-methylthiazol-5-yl)benzyl)pyrrolidine-2-carboxamide] | < 50% | C (“C” indicates maximum degradation < 50%) |  | 
4 | Cc1ncsc1-c1ccc([C@H](C)NC(=O)[C@@H]2C[C@@H](O)CN2C(=O)[C@@H](c2cc(OCCN3CCC(c4cc5cc(-c6ccccc6O)nnc5[nH]4)CC3)no2)C(C)C)cc1 (racemic) [Compound 51, (2S,4R)-4-hydroxy-1-((R)-2-(3-(2-(4-(3-(2-hydroxyphenyl)-7H-pyrrolo[2,3-c]pyridazin-6-yl)piperidin-1-yl)ethoxy)isoxazol-5-yl)-3-methylbutanoyl)-N-((S)-1-(4-(4-methylthiazol-5-yl)phenyl)ethyl)pyrrolidine-2-carboxamide] | > 50% | A (“A” indicates maximum degradation ≥ 75%) | > 0.01 µM | > 0.1 µM
5 | Cc1ncsc1-c1ccc([C@H](C)NC(=O)[C@@H]2C[C@@H](O)CN2C(=O)[C@@H](c2cc(OCCN3CCC(c4cc5cc(-c6ccccc6O)nnc5[nH]4)C3)no2)C(C)C)cc1 (mixture of isomers) [Compound 52, (2S,4R)-4-hydroxy-1-((2R)-2-(3-(2-(3-(3-(2-hydroxyphenyl)-7H-pyrrolo[2,3-c]pyridazin-6-yl)pyrrolidin-1-yl)ethoxy)isoxazol-5-yl)-3-methylbutanoyl)-N-((S)-1-(4-(4-methylthiazol-5-yl)phenyl)ethyl)pyrrolidine-2-carboxamide] | < 50% | A (“A” indicates maximum degradation ≥ 75%) | > 0.01 µM | 
6 | Cc1ncsc1-c1ccc([C@H](C)NC(=O)[C@@H]2C[C@@H](O)CN2C(=O)[C@@H](c2cc(OCCNC34CC(c5cc6cc(-c7ccccc7O)nnc6[nH]5)(C3)C4)no2)C(C)C)cc1 (racemic) [Compound 53, (2S,4R)-4-hydroxy-1-((R)-2-(3-(2-((3-(3-(2-hydroxyphenyl)-7H-pyrrolo[2,3-c]pyridazin-6-yl)bicyclo[1.1.1]pentan-1-yl)amino)ethoxy)isoxazol-5-yl)-3-methylbutanoyl)-N-((S)-1-(4-(4-methylthiazol-5-yl)phenyl)ethyl)pyrrolidine-2-carboxamide] | > 75% | A (“A” indicates maximum degradation ≥ 75%) | > 0.01 µM | > 0.01 µM
7 | Cc1ncsc1-c1ccc([C@H](C)NC(=O)[C@@H]2C[C@@H](O)CN2C(=O)[C@@H](c2cc(OCCN3CC4(CC(c5cc6cc(-c7ccccc7O)nnc6[nH]5)C4)C3)no2)C(C)C)cc1 (racemic) [Compound 54, (2S,4R)-4-hydroxy-1-((R)-2-(3-(2-(6-(3-(2-hydroxyphenyl)-7H-pyrrolo[2,3-c]pyridazin-6-yl)-2-azaspiro[3.3]heptan-2-yl)ethoxy)isoxazol-5-yl)-3-methylbutanoyl)-N-((S)-1-(4-(4-methylthiazol-5-yl)phenyl)ethyl)pyrrolidine-2-carboxamide] | > 50% | A (“A” indicates maximum degradation ≥ 75%) | > 0.01 µM | > 0.1 µM
8 | Cc1ncsc1-c1ccc([C@H](C)NC(=O)[C@@H]2C[C@@H](O)CN2C(=O)[C@H](c2cc(OCCN3CC(c4cc5cc(-c6ccccc6O)nnc5[nH]4)C3)no2)C(C)C)cc1 (racemic) [Compound 62, (2S,4R)-4-hydroxy-1-((S)-2-(3-(2-(3-(3-(2-hydroxyphenyl)-7H-pyrrolo[2,3-c]pyridazin-6-yl)azetidin-1-yl)ethoxy)isoxazol-5-yl)-3-methylbutanoyl)-N-((S)-1-(4-(4-methylthiazol-5-yl)phenyl)ethyl)pyrrolidine-2-carboxamide] |  | C (“C” indicates maximum degradation < 50%) |  | 
9 | Cc1ncsc1-c1ccc([C@H](C)NC(=O)[C@@H]2C[C@@H](O)CN2C(=O)[C@@H](c2cc(N3CCN(CCN4CC(c5cc6cc(-c7ccccc7O)nnc6[nH]5)C4)CC3)no2)C(C)C)cc1 (racemic) [Compound 273, (2S,4R)-4-hydroxy-1-[(2R)-2-{3-[4-(2-{3-[3-(2-hydroxyphenyl)-7H-pyrrolo[2,3-c]pyridazin-6-yl]azetidin-1-yl}ethyl)piperazin-1-yl]-1,2-oxazol-5-yl}-3-methylbutanoyl]-N-[(1S)-1-[4-(4-methyl-1,3-thiazol-5-yl)phenyl]ethyl]pyrrolidine-2-carboxamide] |  | A (“A” indicates maximum degradation ≥ 75%) | > 0.1 µM | 
10 | Cc1ncsc1-c1ccc([C@H](C)NC(=O)[C@@H]2C[C@@H](O)CN2C(=O)[C@@H](c2cc(OCCN3CC(c4cc5cc(-c6ccccc6O)nnc5[nH]4)C3)no2)C(C)C)cc1 [Compound 14, (2S,4R)-4-hydroxy-1-((R)-2-(3-(2-(3-(3-(2-hydroxyphenyl)-7H-pyrrolo[2,3-c]pyridazin-6-yl)azetidin-1-yl)ethoxy)isoxazol-5-yl)-3-methylbutanoyl)-N—((S)-1-(4-(4-methylthiazol-5-yl)phenyl)ethyl)pyrrolidine-2-carboxamide formate] |  | A (“A” indicates maximum degradation ≥ 75%) | > 0.01 µM | 
11 | Cc1ncsc1-c1ccc([C@H](C)NC(=O)[C@@H]2C[C@@H](O)CN2C(=O)[C@@H](c2cc(OCCN3CC(c4c[nH]c5nnc(-c6ccccc6O)cc45)C3)no2)C(C)C)cc1 [Compound 15, (2S,4R)-4-hydroxy-1-((R)-2-(3-(2-(3-(3-(2-hydroxyphenyl)-7H-pyrrolo[2,3-c]pyridazin-5-yl)azetidin-1-yl)ethoxy)isoxazol-5-yl)-3-methylbutanoyl)-N—((S)-1-(4-(4-methylthiazol-5-yl)phenyl)ethyl)pyrrolidine-2-carboxamide formate] |  | A (“A” indicates maximum degradation ≥ 75%) | > 0.1 µM | 
12 | Cc1ncsc1-c1ccc([C@H](C)NC(=O)[C@@H]2C[C@@H](O)CN2C(=O)[C@@H](c2cc(C3CCN(C(=O)N4CCc5[nH]c6nnc(-c7ccccc7O)cc6c5C4)CC3)no2)C(C)C)cc1 [Compound 105, (2S,4R)-4-hydroxy-1-((R)-2-(3-(1-(3-(2-hydroxyphenyl)-6,7,8,9-tetrahydro-5H-pyrido[3′,4′:4,5]pyrrolo[2,3-c]pyridazine-6-carbonyl)piperidin-4-yl)isoxazol-5-yl)-3-methylbutanoyl)-N—((S)-1-(4-(4-methylthiazol-5-yl)phenyl)ethyl)pyrrolidine-2-carboxamide] |  | A (“A” indicates maximum degradation ≥ 75%) | > 0.01 µM | 

Source: patent publication US20240024488A1, “COMPOUNDS AND USES THEREOF” (Foghorn Therapeutics Inc., priority 2020, published 2024)
